US8138220B2, “[2-(6-fluoro-1H-indol-3-ylsulfanyl)benzyl]methyl amine for the treatment of affective disorders” (H. Lundbeck A/S, priority 2006, dated 2012)

Tests used:
5-HT2A receptors [1] = molecular target: T1, 5-HT2A receptors (Homo sapiens, UniProt P28223); test: 5-HT2A functional assay, 5-HT evoked Ca2+ release in CHO cells (FLIPR)
Method: The experiment was carried out as follows. 2 or 3 days before the experiment CHO cells expressing approximately 250 fmol/mg 5-HT2A receptors are plated at a density sufficient to yield a mono-confluent layer on the day of the experiment. […] Lacer intensity was set to a suitable level to obtain basal values of approximately 8000-10000 fluorescence units. The variation in basal fluorescence should be less than 10%. […] Test substances are added to the cells 5 minutes before the 5-HT.

rat 5-HT2A receptor = rat 5-HT2A receptor (Rattus norvegicus, UniProt P14842); test: Ki for rat versus human 5-HT2A receptor; type: binding
[2] = molecular target: T2, human alpha1A-7 receptors (Homo sapiens, UniProt P35348); test: α1A functional assay, adrenaline evoked Ca2+ release in CHO cells (FLIPR); type: cell-based; details: CHO cells expressing human alpha1A-7 receptors
T2 sequence (P35348 1-423 limits assumed): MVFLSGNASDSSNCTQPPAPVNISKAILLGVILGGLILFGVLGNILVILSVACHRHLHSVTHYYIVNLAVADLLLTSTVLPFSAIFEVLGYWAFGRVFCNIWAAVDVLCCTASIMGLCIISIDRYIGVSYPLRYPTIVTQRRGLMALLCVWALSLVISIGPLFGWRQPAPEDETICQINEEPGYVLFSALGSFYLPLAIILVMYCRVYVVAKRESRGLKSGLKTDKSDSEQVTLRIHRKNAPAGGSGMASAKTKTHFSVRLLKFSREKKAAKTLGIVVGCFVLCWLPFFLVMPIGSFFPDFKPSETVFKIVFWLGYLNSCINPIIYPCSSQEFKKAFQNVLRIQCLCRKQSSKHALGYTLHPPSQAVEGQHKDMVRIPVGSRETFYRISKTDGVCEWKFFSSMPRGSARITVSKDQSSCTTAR
Method: All cells were cultured in DMEM medium supplemented with 10% BCS, 4 mM L-glutamine (or 2 mM in the case of COS-7), and 100 units/ml penicillin plus 100 μg/ml streptomycin, at 37° C., in 5% CO2.
Twenty-four hours prior to assays, CHO cells expressing the human alpha1A-7 receptors were seeded into 384-well black wall microtiter plates coated with poly-D-lysine. Culture medium was aspirated and cells were dye-loaded with 1.5 μM Fluo-4 in assay buffer composed of Hank's Balanced Salt Solution (138 mM NaCl, 5 mM KCl, 1.3 mM CaCl2, 0.5 mM MgCl2, 0.4 mM MgSO4, 0.3 mM KH2PO4, 0.3 mM Na2HPO4, 5.6 mM glucose) plus 20 mM HEPES pH 7.4, 0.05% BSA and 2.5 mM probenicid (50 μl/well) for 1 hour in 5% CO2 at 37° C. After excess dye was discarded, cells were washed in assay buffer and layered with a final volume equal to 45 μl/well (or 30 ul/well for antagonist assay). […] Laser excitation energy was adjusted so that basal fluorescence readings were approximately 8,000 relative fluorescent units (RFU). Cells were then stimulated at room temperature with agonists diluted in assay buffer (15 μl), and RFU were measured at 1.5 second intervals over a period of 2.5 min. Maximum change in fluorescence was calculated for each well. Concentration-response curves derived from the maximum change in fluorescence were analyzed by nonlinear regression (Hill equation). […]

[3] = test system: telemeterised Beagle dogs; test: Effect on blood pressure in telemeterised Beagle dogs; type: in vivo, dog
Method: The cardiovascular effects of compounds of the present invention were investigated in telemeterised Beagle dogs in the doses 0.25, 0.50 and 1.0 mg/kg given by gavage. Amount of compound is calculated as the free base. Six dogs were used in the experiment, three males and three females.

Rats = test: Impact on sleep architecture, EEG/EMG in rats; type: in vivo, rat; details: for % of time spent in REM / % of time spent in SWS / % of time spent in Wake: second hour of recording; for sleep latency: time from injection until first consolidated sleeping episode
Method: Rats were implanted with EEG and EMG electrodes to monitor the brain electrical activity and the muscle electrical activity, respectively. The electrodes were connected to a radio transmitter allowing a continuous collection of activity data from freely moving, undisturbed and home-caged animals. The EEG and EMG data were visually scored to determine the arousal states wake, SWS and REM sleep. A group of 10 rats were administered vehicle or the compound of the present invention corresponding to 0.4 mg/kg and 4 mg/kg of the free base. A William's square cross over design was applied so that each animal receives each treatment once.

serotonin reuptake = molecular target: T3, serotonin reuptake (Rattus norvegicus, UniProt P31652); test: Serotonin transport inhibition, [3H]5-HT uptake in rat cortical synaptosomes; type: biochemical; details: [3H]5-HT 10 nM
T3 construct: rat cortical synaptosome preparation; from tissue; host or cells: rat cortical synaptosomes
T3 sequence (P31652 whole entry): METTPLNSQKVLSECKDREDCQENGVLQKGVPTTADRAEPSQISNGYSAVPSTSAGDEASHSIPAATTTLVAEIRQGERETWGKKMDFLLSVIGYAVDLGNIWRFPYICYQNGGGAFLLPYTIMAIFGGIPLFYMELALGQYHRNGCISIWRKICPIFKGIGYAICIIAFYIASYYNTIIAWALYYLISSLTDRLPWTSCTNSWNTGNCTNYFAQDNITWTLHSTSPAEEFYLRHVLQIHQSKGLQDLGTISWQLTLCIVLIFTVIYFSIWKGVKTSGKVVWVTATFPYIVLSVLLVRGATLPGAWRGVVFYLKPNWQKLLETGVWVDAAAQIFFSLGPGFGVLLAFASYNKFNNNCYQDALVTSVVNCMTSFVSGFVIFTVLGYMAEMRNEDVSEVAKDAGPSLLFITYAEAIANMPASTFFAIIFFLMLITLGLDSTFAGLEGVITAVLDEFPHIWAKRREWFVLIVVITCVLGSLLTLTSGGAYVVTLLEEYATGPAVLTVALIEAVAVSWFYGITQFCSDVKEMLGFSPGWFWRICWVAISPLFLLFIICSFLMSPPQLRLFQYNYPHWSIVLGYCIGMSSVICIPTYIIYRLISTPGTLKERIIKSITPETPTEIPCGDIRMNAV
Method: (§1) Aliquots of test compound and rat cortical synaptosome preparation were pre-incubated for 10 min/37° C., and then added [^3H]NE or [^3H]5-HT (final concentration 10 nM). Non-specific uptake was determined in the presence of 10 μM talsupram or citalopram and the total uptake was determined in the presence of buffer. Aliquots were incubated for 15 minutes at 37° C. After the incubation [^3H]NE or [^3H]5-HT taken up by synaptosomes was separated by filtration through Unifilter GF/C, presoaked in 0.1% PEI for 30 minutes, using a Tomtec CellHarvester program. Filters were washed and counted in a Wallac MicroBeta counter.

5-HT2A receptors [4] = molecular target: T1, 5-HT2A receptors; test: 5-HT2A receptor affinity (MDL Pharmaservices catalogue number 271650); type: binding; parameters: purchased MDL Pharmaservices 271650; details: Cheng Prusoff from IC50, 5 concentrations
Method: 5 concentration of compound (1, 10, 30, 100, 1000 nM) were used to calculate the IC50 value. Ki was calculated from the Cheng Prusoff equation Ki=(IC50/(1+([L]/Kd)) Affinity was determined at MDL Pharmaservices catalogue number 271650.

noradrenalin reuptake = molecular target: T4, noradrenalin reuptake (Rattus norvegicus, UniProt Q63380); test: Noradrenalin transport inhibition, [3H]NE uptake in rat cortical synaptosomes; type: biochemical; details: [3H]NE 10 nM
T4 construct: rat cortical synaptosome preparation; from tissue; host or cells: rat cortical synaptosomes
T4 sequence (Q63380 1-617): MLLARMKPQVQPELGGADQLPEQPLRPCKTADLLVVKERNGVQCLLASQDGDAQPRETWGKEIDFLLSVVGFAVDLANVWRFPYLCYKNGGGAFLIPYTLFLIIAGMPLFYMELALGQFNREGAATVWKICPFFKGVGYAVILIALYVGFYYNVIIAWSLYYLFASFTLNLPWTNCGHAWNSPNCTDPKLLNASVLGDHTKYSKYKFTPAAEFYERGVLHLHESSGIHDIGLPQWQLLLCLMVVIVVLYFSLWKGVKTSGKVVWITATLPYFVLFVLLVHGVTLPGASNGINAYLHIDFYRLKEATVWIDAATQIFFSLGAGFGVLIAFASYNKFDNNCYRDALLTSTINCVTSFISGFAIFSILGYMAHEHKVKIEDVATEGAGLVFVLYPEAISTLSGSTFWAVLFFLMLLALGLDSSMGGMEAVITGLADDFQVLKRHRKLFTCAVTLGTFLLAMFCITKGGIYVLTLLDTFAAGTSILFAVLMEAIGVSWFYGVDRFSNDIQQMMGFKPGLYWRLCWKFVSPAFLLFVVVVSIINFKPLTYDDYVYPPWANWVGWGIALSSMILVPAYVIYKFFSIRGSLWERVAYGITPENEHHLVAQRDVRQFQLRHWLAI
Method: as §1

T1 sequence (P28223 whole entry): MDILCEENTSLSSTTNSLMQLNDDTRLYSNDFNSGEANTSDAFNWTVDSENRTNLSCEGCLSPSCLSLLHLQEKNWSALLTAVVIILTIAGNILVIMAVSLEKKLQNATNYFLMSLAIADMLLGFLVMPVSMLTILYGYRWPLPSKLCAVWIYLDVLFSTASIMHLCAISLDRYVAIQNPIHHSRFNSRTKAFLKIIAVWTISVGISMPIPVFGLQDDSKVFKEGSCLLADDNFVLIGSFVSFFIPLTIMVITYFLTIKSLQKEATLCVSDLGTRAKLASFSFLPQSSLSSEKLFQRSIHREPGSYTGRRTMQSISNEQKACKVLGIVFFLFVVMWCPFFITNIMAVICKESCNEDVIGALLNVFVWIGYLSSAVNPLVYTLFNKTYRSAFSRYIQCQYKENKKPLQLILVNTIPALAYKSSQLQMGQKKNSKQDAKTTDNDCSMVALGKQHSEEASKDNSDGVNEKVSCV
rat 5-HT2A receptor, sequence (P14842 whole entry): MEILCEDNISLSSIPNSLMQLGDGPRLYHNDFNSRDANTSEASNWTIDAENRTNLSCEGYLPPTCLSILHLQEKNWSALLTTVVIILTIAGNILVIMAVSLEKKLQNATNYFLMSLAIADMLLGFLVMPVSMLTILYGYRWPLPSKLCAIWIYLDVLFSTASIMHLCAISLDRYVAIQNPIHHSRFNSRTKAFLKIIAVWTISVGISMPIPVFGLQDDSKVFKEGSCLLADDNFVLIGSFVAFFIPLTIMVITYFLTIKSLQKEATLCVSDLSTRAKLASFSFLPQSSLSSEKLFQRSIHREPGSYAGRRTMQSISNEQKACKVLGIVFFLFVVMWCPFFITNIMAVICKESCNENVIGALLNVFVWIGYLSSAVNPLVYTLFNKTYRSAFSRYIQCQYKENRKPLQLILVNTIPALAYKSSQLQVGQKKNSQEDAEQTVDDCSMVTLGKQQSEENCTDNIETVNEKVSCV

Q: With `CNCc1ccccc1Sc1c[nH]c2cc(F)ccc12` [compounds of the present invention, [2-(6-fluoro-1H-indol-3-ylsulfanyl)benzyl]methyl amine] as the molecule, how does the Kb (5-HT2A receptors [1]) read?
A: 130 nM

Q: What about the pA2 (5-HT2A receptors [1]; schild analysis, CHO cells expressing 5-HT2A, 5-HT curves with 150, 400, 1500, 4000 nM compound) of the same molecule?
A: 6.88

Q: And the “Ki rat 5-HT2A receptor higher than human 5-HT2A receptor” value (rat 5-HT2A receptor)?
A: ~40 fold

Q: What about the Kb [2] of the same molecule?
A: 64 nM

Q: What about the “Systolic arterial blood pressure (Change from baseline (mean ± SD)) (10-380 min)” value ([3]; 0.25 mg/kg by gavage) of the same molecule?
A: −4.26 ± 5.98

Q: What about the “Systolic left ventricular pressure (Change from baseline (mean ± SD)) Post-dose period I (10-380 min)” value ([3]; 0.25 mg/kg by gavage) of the same molecule?
A: −3.82 ± 3.42^♀

Q: What about the “Systolic arterial blood pressure (Change from baseline (mean ± SD)) (10-380 min)” value ([3]; 0.50 mg/kg by gavage) of the same molecule?
A: −9.77 ± 5.39

Q: What about the “Systolic left ventricular pressure (Change from baseline (mean ± SD)) Post-dose period I (10-380 min)” value ([3]; 0.50 mg/kg by gavage) of the same molecule?
A: −11.13 ± 4.05^♂♀

Q: And the “Systolic arterial blood pressure (Change from baseline (mean ± SD)) (10-380 min)” value ([3]; 1.00 mg/kg by gavage)?
A: −6.30 ± 6.63

Q: What about the “Systolic left ventricular pressure (Change from baseline (mean ± SD)) Post-dose period I (10-380 min)” value ([3]; 1.00 mg/kg by gavage) of the same molecule?
A: −3.08 ± 5.37^♂,♀

Q: And the “% of time spent in REM” value (Rats; 0.4 mg/kg free base)?
A: 0.00%

Q: And the “% of time spent in SWS” value (Rats; 0.4 mg/kg free base)?
A: 62.08%

Q: And the “% of time spent in Wake” value (Rats; 0.4 mg/kg free base)?
A: 37.92%

Q: What about the sleep latency (Rats; 0.4 mg/kg) of the same molecule?
A: 26.43 min

Q: What about the “% of time spent in REM” value (Rats; 4.0 mg/kg free base) of the same molecule?
A: 0.00%

Q: And the “% of time spent in SWS” value (Rats; 4.0 mg/kg free base)?
A: 69.97%

Q: And the “% of time spent in Wake” value (Rats; 4.0 mg/kg free base)?
A: 30.03%

Q: And the sleep latency (Rats; 4.0 mg/kg)?
A: 20.62 min

Q: What about the IC50 (serotonin reuptake) of the same molecule?
A: 0.4 nM

Q: What about the Ki (5-HT2A receptors [4]) of the same molecule?
A: 14 nM

Q: And the IC50 (noradrenalin reuptake)?
A: 4.4 nM
